Reference: patent publication US8677934B2 (Yissum Research Development Company of the Hebrew …, priority 2007, dated 2014)
Positions of bridges follow the written chain, without caps; N, C: chain ends. Residues, ends and D or L forms follow the SMILES beside them.

Assays:
[1] = format: in vitro ADME, Drosophila melanogaster
Procedure: Liquid Chromatography—Mass Spectrometery (LC-MS/MS). Hemolymph was prepared as described in section 2.3, except that 50 D. melanogaster female-equivalents of unmated or mated female flies were used for 30 min incubations with 20 μg of T-SP. Reactions were terminated and processed as detailed in section 2.5. The supernatants of the methanol precipitations were lyophilized and resuspended by sonication in 100 μl of loading buffer (5% acetonitrile, 0.1% formic acid) and analyzed by LC-MS/MS. Briefly, the peptide mixtures were run in an Agilent 1100 series micro-flow HPLC system (Agilent Technologies, Inc., Palo Alto, Calif.) coupled to an Esquire-HCT ion trap mass spectrometer through the online nano-ESI ion source (Broker Daltonik GmbH, Bremen). Peptides were separated on a Protein-15-C18-150 microbore column (Micro-Tech Scientific, Cousteau, Court Vista, Calif.) using a 5% to 30% gradient of acetonitrile in 0.1% formic acid for 37 min at […], at a flow rate of 1 μl/min. MS and MS2 spectra were acquired in a data-driven way with parameters optimized for peptide mixture analysis. The resulting MS/MS chromatograms were processed by the DataAnalysis 3.1 application and further analysed with BioTools 2.2 (Broker Daltonik GmbH, Bremen) and MASCOT (Matrix Science), assuming the unknown specificity of the hemolymph protease. A 95% confidence interval was set as threshold. […]

D. melanogaster females [2] = assay: Receptivity assay, ectopic expression in unmated females by heat-inducible GAL4 driver (hsp70-GAL4); format: in vivo, Drosophila melanogaster; conditions: for duration of rejection behavior (kicking and extruding ovipositor): days examined
Procedure: Heat shock. Transgenic unmated females carrying the mutated T-SP (hsp70-GAL4; UAS-T-SPX) were placed in empty vials supplemented with moisture filter paper. Files were placed in water bath and heated gradually from 25 to 37° C. Flies were kept at this temperature for 1 hr thereafter returned to room temperature for one hour for recovery. Recovered heat-shocked flies were placed in food vials and kept at 25° C. until used.
(§1) Receptivity assay. Single unmated females of each homogenous UAS-T-SP transgene (see also Table 2) were placed in a food vial with single unmated 3-5-day-old males of the same UAS-T-SP transgene. Two parameters were monitored for one hour: (i) Receptivity rate—the number of female that mated; (ii) courtship behavior—whether or not female performed a rejection behaviors (kicking and extruding their ovipositor). […] For that a group of 10 females were isolated from each group and their behavior was inspected. […] These females will be exposed in the next day to newly unmated 3-5-day-old males (see section developing bioassay for additional details).
To examine the effect of the modified T-SP on female receptivity we first developed a sensitive bioassay that provided optimal conditions to test the transgenes. […] We examined two independent lines to determine the effect of exposure to one or two males and whether a window of one hour would be sensitive enough to detect changes in female behavior. Four-day-old unmated females were placed with one or two males in a fresh food vial and their behavior was documented. Mated females were separated from males and left in the food vials. Twenty four hours later the females were re-exposed to unmated 3-day-old males and inspected for mating encounter and courting behavior for 1 hour. […] About 50% of the females re-mated after 4 to 5 days (FIGS. 7A-B).
Since a change in the willingness of the female to mate is expressed in their behavior, we next developed a qualitative behavioral bioassay. Mated females reject the courting males by extruding their ovipositor toward the male and/or by kicking the courting male. Theses behaviors are not seen in unmated females. We set up a system in which we inspected whether or not the female kicks the male and extrudes her ovipositor toward the male (see material and methods), both of which are predictors of female receptivity status.

D. melanogaster females [3] = assay: Receptivity assay, peptide expressed in male accessory glands and transferred to the female during mating; format: in vivo, Drosophila melanogaster; conditions: transgene received from male seminal fluid, FIG. 14
Text: Transgenic flies. The GAL4-UAS system, first described by Brand and Perrimon (1993), was used for transgenesis of D. melanogaster. Briefly, T-SP was cloned into the pUAST vector, which bears an upstream activating sequence (UAS) site able to bind to the yeast transcription factor GAL4. Two separate fly lines are reared, the one (UAS) bearing the gene(s) to be transcribed and a chosen promoter (target line), the second being the GAL4 activating line. By select and controlled crossing of these two parent lines, the transgene, in this case T-SP or its amino-acid substituted homolog, is activated and expressed in the filial generation, at different times during development, and/or in select tissues, dependent on the promoter and inducer utilized. In this case, the GAL4 gene is under the control of the accessory gland specific promoter 26Aa that is induced only in the accessory glands (Park et al., 1994).
RT-PCR. Expression was induced by a heat-inducible GAL4 driver (hsp70-GAL4), or with the Acp26Aa GAL4 driver (Acp26Aa-GAL4) which, restricts expression to the male accessory glands exclusively. To verify the expression of T-SP, groups of 10 heat-shocked females were taken at different time post-heat-shock, placed in Eppendorf tubes, quick-frozen in liquid nitrogen and kept at −80° C. until subject to RNA extraction. mRNA extraction was performed with Dynabeads (Invitrogen) according to the manufacturer's instructions.
as §1, with “details). […]” for “details).”

[4] = tested on: trypsin activity of mated female hemolymph; assay: Trypsin inhibition assay: cleavage of N-Bnz-R-pna by mated female hemolymph; format: biochemical, Drosophila melanogaster; conditions: 20 min pre-incubation, with DTT
Procedure: Hemolymph sample preparation. Hemolymph from batches of 250 unmated or mated females was extracted 4 days after eclosion as in Lung and Wolfner (1999). Briefly, groups of 5 flies, punctured in the prothorax, were placed head down in chilled Eppendorf tubes (0.5 ml tube pierced in the bottom and inserted into intact 1.5 ml tubes) and centrifuged at 4° C. Tubes were inspected for presence of fat body. Ten μl of 100 mM Tris buffer, pH 8.0, was added to the first tube, and then the collected hemolymph plus Tris from tube 1 was transferred from this tube to the next tube and so on, in to pool hemolymph extracted from unmated or mated female flies.
Protease and inhibition assays. Protease activity in D. melanogaster female hemolymph was assayed using chromogenic substrates. […]
Commercial enzymes (response controls of the specific reaction mixture) were dissolved in 100 mM Tris buffer, pH 8.0, at a concentration of 5 μg/μl. […] Activity was recorded as increase in absorbance, due to the release of 4-nitroaniline, as measured using an ELISA reader with 405 nm filter in an ELISA Plate Reader (ELx800, Bio-Tek Instruments). Values are relative absorbance readings, obtained with equal fly-equivalents of hemolymph as source of protease. […] Hemolymph protein content was measured spectroscopically at 280 nm, and was 0.5-1 μg per female. […]

[5] = tested on: CA of young unmated female C. capitata; assay: In-vitro synthesis of JHB3 by the corpus allatum; parameters: species or system Ceratitis capitata; conditions: DrmSP with its N-terminal motif
[6] = mated female hemolymph (50 D. melanogaster female-equivalents); conditions: 37° C., up to 40 min
[7] = hemolymph extracted from 4-days old mated females, in 100 mM Tris buffer, pH 8.0; conditions: D. melanogaster, 37° C., up to 60 min
Elastase = Elastase from porcine pancreas in 100 mM Tris buffer, pH 8.0; conditions: 37° C., up to 60 min
[8] = hsp70-GAL4 driver, FIG. 10, wild-type threshold 4-5 days
[9] = other independent lines, FIG. 11, n=20

In the case of `CC[C@H](C)[C@H](NC(=O)[C@@H]1CCCN1C(=O)[C@H](Cc1ccccc1)NC(=O)[C@H](CCCCN)NC(=O)[C@@H](NC(=O)[C@@H]1CCCN1C(=O)[C@@H](N)CCCCN)[C@@H](C)O)C(=O)N1CCC[C@H]1C(=O)N[C@@H](CO)C(=O)N1CCC[C@H]1C(=O)N[C@@H](CC(N)=O)C(=O)N1CCC[C@H]1C(=O)N[C@@H](CCCNC(=N)N)C(=O)N[C@@H](CC(=O)O)C(=O)N[C@@H](CCCCN)C(=O)N[C@@H](Cc1c[nH]c2ccccc12)C(=O)N[C@H]1CSSC[C@@H](C(=O)O)NC(=O)[C@H](CCCNC(=N)N)NC(=O)CNC(=O)CNC(=O)[C@H](Cc2c[nH]c3ccccc23)NC(=O)[C@H](C)NC(=O)[C@@H]2CCCN2C(=O)CNC(=O)[C@H](CC(C)C)NC(=O)[C@H](CC(N)=O)NC(=O)[C@H](CC(C)C)NC(=O)[C@H](CCCNC(=N)N)NC1=O` [T-SP] (H-KPTKFPIPSPNPRDKWCRLNLGPAWGGRC-OH; disulfide 17-29; N-terminus and C-terminus assumed), the “number of different fragments yielded” value [1] is reported as 11, the “number of fragments obtained” value [1] is reported as “five” and the “duration of induced female non-receptivity” value (D. melanogaster females [2]; [8]) is reported as 8 days. For the same molecule, the “duration of rejection behavior (kicking and extruding ovipositor)” value (D. melanogaster females [2]; hsp70-GAL4 driver) was 8 days, the “duration of induced female non-receptivity” value (D. melanogaster females [2]; [9]) was 8 days and the “time at which females commenced re-mating after the first mating” value (D. melanogaster females [3]) was “three”.

With `Cc1ccc(S(=O)(=O)N[C@@H](CCCCN)C(=O)CCl)cc1.Cl` [TLCK, Na-p-Tosyl-L-lysine chloromethyl ketone hydrochloride] the “reduced cleavage of N-Bnz-R-pna” value ([4]; TLCK 1 mM final) was 40%.

In the case of “DrmSP: Drosophila melanogaster Sex Peptide; mature form a linear peptide of 36 amino acids with an S-S bridge”, the “effect on in-vitro synthesis of JHB3” value [5] is reported as “depresses”.

In the case of KPTKFPIPSPNPRDKWCRLNLGPAWGGRC, the cleaved bond [6] is reported as “R25-L26, major, 30 min”.

In the case of N-Succinyl-Ala-Ala-Ala-pna, the not cleaved [7] is reported as “elastase activity was not observed”.

In the case of N-Succinyl-Ala-Ala-Pro-Ile-pna, the cleaved bond [7] is reported as “I-pna”.

With N-Succinyl-Ala-Ala-Pro-Leu-pna the cleaved bond [7] was “L-pna”.

For N-Succinyl-Ala-Ala-Val-pna, the cleaved bond (Elastase) was “V-pna” and the cleaved bond [7] was “V-pna”.

In the case of “T-SPQ: T-SP with arginine at position 25 substituted with glutamine, KPTKFPIPSPNPRDKWCQLNLGPAWGGRC (SEQ ID NO: 12); expressed transgenically”, the “duration of induced female non-receptivity” value (D. melanogaster females [2]; [8]) is reported as 8 days, the “duration of rejection behavior (kicking and extruding ovipositor)” value (D. melanogaster females [2]; hsp70-GAL4 driver) is reported as 8 days and the “duration of induced female non-receptivity” value (D. melanogaster females [2]; [9]) is reported as 8 days. For the same molecule, the “percentage of re-mating compared with T-SP” value (D. melanogaster females [3]) was “lower percentages” and the “time at which females commenced re-mating after the first mating” value (D. melanogaster females [3]) was 5 days.

With Z-Gly-Gly-Leu-p-Nitroanilide the not cleaved [7] was “Neither chymotrypsin nor subtilisin activity were evident”.

B1: Bowman-Birk inhibitor (protein)
chain: DDESSKPCCDQCACTKSNPPQCRCSDMRLNSCHSACKSCICALSYPAQCFCVDITDFCYEPCKPSEDDKEN
For B1, the “reduced cleavage of N-Bnz-R-pna” value ([4]; BBI 5 μM final) was 78%.
